Measurements: PubChem BioAssay AID248 (DTP/NCI, 2004)
“And” between values parts separate entries of the source, which are not always exact repeats. Equal values may be shown once. Inconclusive results and toxic doses are left out. No stated cut-off is given here; in the data, active means T/C of 150% or more; inactive means T/C below 125%.

Tested on: L1210 leukemia ip in BDF1 mice, survival T/C
Assay: NCI In Vivo Anticancer Drug Screen. Data for tumor model L1210 Leukemia (intraperitoneal) in B6D2F1 (BDF1) mice
Conditions: endpoint: mean survival time, higher = longer survival
Method in brief: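 Value reflects the ratio of survival in compound-treated mice to survival in vehicle-treated controls, with both groups carrying the same transplanted tumor.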

[1] = dose: 100.0 mg/kg/injection, schedule: Q04DX002 (ip), vehicle: Klucel (hydroxypropylcellulose) (HPC)
[2] = dose: 200.0 mg/kg/injection, schedule: Q04DX002 (ip), vehicle: Klucel (hydroxypropylcellulose) (HPC)
[3] = dose: 400.0 mg/kg/injection, schedule: Q04DX002 (ip), vehicle: Klucel (hydroxypropylcellulose) (HPC)
[4] = dose: 50.0 mg/kg/injection, schedule: Q01DX001 (ip), vehicle: saline
[5] = dose: 100.0 mg/kg/injection, schedule: Q01DX001 (ip), vehicle: saline
[6] = dose: 200.0 mg/kg/injection, schedule: Q01DX001 (ip), vehicle: saline
[7] = dose: 400.0 mg/kg/injection, schedule: Q01DX001 (ip), vehicle: saline
[8] = dose: 100.0 mg/kg/injection, schedule: Q01DX009 (ip), vehicle: Klucel (hydroxypropylcellulose) (HPC)
[9] = dose: 100.0 mg/kg/injection, schedule: Q04DX003 (ip), vehicle: Klucel (hydroxypropylcellulose) (HPC)
[10] = dose: 200.0 mg/kg/injection, schedule: Q01DX009 (ip), vehicle: Klucel (hydroxypropylcellulose) (HPC)
[11] = dose: 200.0 mg/kg/injection, schedule: Q04DX003 (ip), vehicle: Klucel (hydroxypropylcellulose) (HPC)
[12] = dose: 400.0 mg/kg/injection, schedule: Q04DX003 (ip), vehicle: Klucel (hydroxypropylcellulose) (HPC)
[13] = dose: 100.0 mg/kg/injection, schedule: Q01DX009 (ip), vehicle: saline with Tween-80
[14] = dose: 200.0 mg/kg/injection, schedule: Q01DX009 (ip), vehicle: saline with Tween-80
[15] = dose: 100.0 mg/kg/injection, schedule: Q04DX003 (ip), vehicle: saline with Tween-80
[16] = dose: 200.0 mg/kg/injection, schedule: Q04DX003 (ip), vehicle: saline with Tween-80
[17] = dose: 400.0 mg/kg/injection, schedule: Q04DX003 (ip), vehicle: saline with Tween-80

Measured: T/C

N/C(=N\[N+](=O)[O-])Nc1ccccn1
inactive: [1] 95 % of control | [2] 98 % of control | [3] 109 % of control

CCN(CC)CCCC(C)NC(=O)c1cccc2c([N+](=O)[O-])cccc12 (stereo unspecified)
inactive: dose: 25.0 mg/kg/injection, schedule: Q01DX009 (ip), vehicle: water 100 % of control | dose: 50.0 mg/kg/injection, schedule: Q01DX009 (ip), vehicle: water 108 % of control | dose: 100.0 mg/kg/injection, schedule: Q01DX009 (ip), vehicle: water 103 % of control

C/C=C/c1cc(C)cc(C)c1OC(C)CC (stereo unspecified)
inactive: dose: 100.0 mg/kg/injection, schedule: Q04DX002 (ip), vehicle: saline with Tween-80 104 % of control | dose: 200.0 mg/kg/injection, schedule: Q04DX002 (ip), vehicle: saline with Tween-80 93 % of control

Nc1c2c([nH]c(=O)c1N=O)CCC2
inactive: [4] 95 % of control | [5] 93 % of control | [6] 95 % of control | [7] 104 % of control

O=C(NC(=S)Nc1cccc(Cl)c1)c1ccccc1
inactive: [8] 106 % of control | [9] 95 % of control | [10] 113 % of control | [11] 92 % of control | [12] 95 % of control

O=C1/C(=C\c2cccnc2)CCCc2ccccc21
inactive: dose: 100.0 mg/kg/injection, schedule: Q04DX003 (ip), vehicle: carboxymethylcellulose (CMC) 100 % of control | dose: 200.0 mg/kg/injection, schedule: Q04DX003 (ip), vehicle: carboxymethylcellulose (CMC) 98 % of control | dose: 400.0 mg/kg/injection, schedule: Q04DX003 (ip), vehicle: carboxymethylcellulose (CMC) 98 % of control

COc1ccc(C(=O)N=C(c2ccccc2)c2ccccc2)cc1
inactive: [13] 95 % of control | [9] 92 % of control | [14] 98 % of control | [11] 97 % of control | dose: 400.0 mg/kg/injection, schedule: Q01DX009 (ip), vehicle: saline with Tween-80 93 % of control | [12] 95 % of control

OC(C1COC(CBr)O1)C(O)C1COC(CBr)O1 (stereo unspecified)
inactive: [1] 117 % of control and 113 % of control | [2] 98 % of control and 103 % of control | [3] 95 % of control

Cc1ccc([N+](=O)[O-])cc1NC(=O)SCCOC(=O)COc1ccc(Cl)cc1
inactive: dose: 50.0 mg/kg/injection, schedule: Q01DX009 (ip), vehicle: saline with Tween-80 97 % of control | [13] 97 % of control and 106 % of control | [14] 103 % of control

CN(C(=O)CCC(=O)O)c1cc([N+](=O)[O-])ccc1OCc1ccccc1
inactive: [4] 108 % of control | [5] 100 % of control | [6] 105 % of control | [7] 109 % of control

COC(=O)CCSCCC(=O)OC
inactive: [8] 105 % of control | [9] 103 % of control | [10] 97 % of control | [11] 101 % of control | dose: 400.0 mg/kg/injection, schedule: Q01DX009 (ip), vehicle: Klucel (hydroxypropylcellulose) (HPC) 95 % of control | [12] 105 % of control

CC12OC1(C)C1(CO1)C1(C)OC1(C)C2=O (stereo unspecified)
inactive: dose: 100.0 mg/kg/injection, schedule: Q01DX001 (ip), vehicle: Klucel (hydroxypropylcellulose) (HPC) 94 % of control | dose: 200.0 mg/kg/injection, schedule: Q01DX001 (ip), vehicle: Klucel (hydroxypropylcellulose) (HPC) 97 % of control | dose: 400.0 mg/kg/injection, schedule: Q01DX001 (ip), vehicle: Klucel (hydroxypropylcellulose) (HPC) 87 % of control

CC(=O)N(C)c1ccc(NC2=NCCO2)cc1
inactive: [15] 98 % of control | [16] 101 % of control | [17] 98 % of control

CC(=O)OCCOc1ccc([N+](=O)[O-])cc1
inactive: [15] 102 % of control | [16] 102 % of control | [17] 103 % of control
